No end group written: not given here. *: point of attachment. Biotin = O=C1N[C@H]2[C@H](CS[C@H]2CCCCC(=O)*)N1
Tested on: human recombinant GST-CaN
Assay: Peptide/CaN interaction assay (biotinylated peptides on streptavidin beads, GST-CaN pull-down, Western blot)
Format: binding
Conditions: for CaN binding relative to the APP (WT) peptide (in words): Fig. 4B, FAD mutant peptides; for Western blot data following CaN interaction with biotinylated peptides, (signal for each/signal for CaN standard) * 40%: biotinylated APP peptides, GST-CaN pull-down; for CaN binding lower than the PVIVIT peptide / percent of CaN recovered (signal for each/signal for CaN standard * 40%) / CaN binding (in words): Fig. 1H; for percent of CaN recovered (signal for each/signal for CaN standard * 40%): 10 μg N-terminally biotinylated peptide on streptavidin beads, 200 ng GST-CaN, 30 min, 4 °C, Western blot, mean (n=7; APP-17mer n=3)
Excerpt: Recombinant rabbit monoclonal to APP (clone Y188; Abcam cat# ab32136; 1:5000 dilution), rabbit polyclonal to APLP1 (Proteintech cat # 12305-2-AP; 1:1000 dilution), and rabbit polyclonal to APLP2 (Proteintech cat # 15041-1-A; 1:500 dilution) were used to detect native APP family members on western blots or recombinant GFP-tagged APP family members as validation (see Fig. S1). A horseradish peroxidase (HRP)-conjugated goat anti-rabbit antibody (Sigma-Aldrich Cat# 12-348; 1:10,000 dilution) was used as secondary antibody for these western blots, while an HRP-conjugated mouse monoclonal antibody to GFP (Invitrogen cat # MA 515256HRP; 1:1000 dilution) was used to independently verify the expression of GFP or GFP-tagged APP family members. A mouse monoclonal antibody CaN (BD Biosciences Cat# 556350; 1:1000 dilution) was used for the detection of native and recombinant CaN on western blots and for co-immunoprecipitation and peptide-based interaction assays experiments, while nonspecific mouse IgG (Thermo Fisher Scientific Cat# 02-6502) was used as a control. An HRP-conjugated goat anti-mouse antibody (Sigma-Aldrich Cat# 12-349; 1:10,000 dilution) […] was used as secondary antibody for these western blots, while HRP-conjugated protein G (Sigma-Aldrich cat # 18-161; 1:5000 dilution) was used for the secondary detection of CaN in co-immunoprecipitation experiments. A mouse monoclonal anti-Flag antibody (Sigma-Aldrich Cat# F1804) was used for co-immunoprecipitations of recombinant APP family members, while an HRP-conjugated version of this antibody (Sigma-Aldrich Cat# A8592; 1:1000) was used for the detection on western blots.
The N-terminally biotinylated AKAP79(330-357) and Ht31peptides were synthesized by Biomolecules Midwest and used as positive and negative controls for CaN interaction as previously described ([20]).
Either PBS with fresh 0.1% Tween-20 and 0.1% bovine serum albumin added or a modified IP buffer (150 mM NaCl, 10 mM Hepes; 5 mM EDTA; pH 7.4) with fresh 0.5% CHAPSO and 0.1% bovine serum albumin was used for these assays. […] Streptavidin-coated dynabeads (20 μl; Invitrogen cat # 65601) were washed and then incubated with 10 μg biotinylated peptides for 15 min at 4 °C in 200 μl of buffer. Beads were washed rapidly (400 μl; 3×) to remove unbound peptide and then incubated with 200 ng human recombinant GST-CaN in 200 μl buffer for 30 min at 4 °C. Following three washes (400 μl; 5 min each), complexes were eluted in 40 μl 2× Laemmli buffer, and samples were separated by SDS-PAGE and analyzed by Western blotting as above. Blots were probed with the mouse monoclonal anti-CaN antibody followed by anti-mouse HRP for secondary detection and visualized by enhanced chemiluminescence and digitally acquired as above. For each blot, the intensity of each band was normalized to that of from the GST-CaN standard (80 ng). As this standard represented 40% of the 200 ng input, the ratio was multiplied by 40 to achieve the percent of CaN recovered.

For “MAGPHTVFVITGPHEE [I641F, biotinylated APP peptide incorporating the FAD mutation I641F]”, the “CaN binding relative to the APP (WT) peptide (in words)” value was “reduced substantially”, the “Western blot data following CaN interaction with biotinylated peptides, (signal for each/signal for CaN standard) * 40%” value (mean of n = 6) was 22.96% and the “Western blot data following CaN interaction with biotinylated peptides, (signal for each/signal for CaN standard) * 40%” value (replicate 1) was 23.46%. For the same substance, the “Western blot data following CaN interaction with biotinylated peptides, (signal for each/signal for CaN standard) * 40%” value (replicate 2) was 18.34%, the “Western blot data following CaN interaction with biotinylated peptides, (signal for each/signal for CaN standard) * 40%” value (replicate 3) was 34.56% and the “Western blot data following CaN interaction with biotinylated peptides, (signal for each/signal for CaN standard) * 40%” value (replicate 4) was 13.72%. For the same substance, the “Western blot data following CaN interaction with biotinylated peptides, (signal for each/signal for CaN standard) * 40%” value (replicate 5) was 12.91% and the “Western blot data following CaN interaction with biotinylated peptides, (signal for each/signal for CaN standard) * 40%” value (replicate 6) was 34.77%.

MAGPHTVIVISGPHEE [APLP2] was tested, and the “CaN binding lower than the PVIVIT peptide” value was ~30% and the “percent of CaN recovered (signal for each/signal for CaN standard * 40%)” value was 42.75%.

GVVIATVIVITLVMLKK [APP-17mer] was tested, and the “CaN binding (in words)” value was “minimal affinity for CaN” and the “percent of CaN recovered (signal for each/signal for CaN standard * 40%)” value was 2.14%.

With “MAGPHTVIFITGPHEE [V642F, biotinylated APP peptide incorporating the FAD mutation V642F]” the “Western blot data following CaN interaction with biotinylated peptides, (signal for each/signal for CaN standard) * 40%” value (mean of n = 6) was 43.86%, the “Western blot data following CaN interaction with biotinylated peptides, (signal for each/signal for CaN standard) * 40%” value (replicate 1) was 84.45% and the “Western blot data following CaN interaction with biotinylated peptides, (signal for each/signal for CaN standard) * 40%” value (replicate 2) was 46.13%. For the same substance, the “Western blot data following CaN interaction with biotinylated peptides, (signal for each/signal for CaN standard) * 40%” value (replicate 3) was 42.80%, the “Western blot data following CaN interaction with biotinylated peptides, (signal for each/signal for CaN standard) * 40%” value (replicate 4) was 26.46% and the “Western blot data following CaN interaction with biotinylated peptides, (signal for each/signal for CaN standard) * 40%” value (replicate 5) was 29.11%. The “Western blot data following CaN interaction with biotinylated peptides, (signal for each/signal for CaN standard) * 40%” value (replicate 6) was 34.24%.

For “AKAP79: N-terminally biotinylated peptide derived from the AKAP79 CaN-binding domain, positive control (Biotin-EESKRMEPIAIIITDTEISEFDVTKSKN) [reference compound]”, the “percent of CaN recovered (signal for each/signal for CaN standard * 40%)” value was 21.96%.

For MAGPHTVIVITGPHEE [APP], the “CaN binding (in words)” value was “nearly the same extent as the PVIVIT peptide” and the “percent of CaN recovered (signal for each/signal for CaN standard * 40%)” value was 52.92%.

For MAGPHSLIVLSGPHEE [APLP1], the “CaN binding lower than the PVIVIT peptide” value was ~80% and the “percent of CaN recovered (signal for each/signal for CaN standard * 40%)” value was 13.18%.

“MAGPHTVIIITGPHEE [V642I, biotinylated APP peptide incorporating the FAD mutation V642I]” was tested, and the “Western blot data following CaN interaction with biotinylated peptides, (signal for each/signal for CaN standard) * 40%” value (mean of n = 6) was 44.18%, the “Western blot data following CaN interaction with biotinylated peptides, (signal for each/signal for CaN standard) * 40%” value (replicate 1) was 54.96% and the “Western blot data following CaN interaction with biotinylated peptides, (signal for each/signal for CaN standard) * 40%” value (replicate 2) was 45.24%. For the same substance, the “Western blot data following CaN interaction with biotinylated peptides, (signal for each/signal for CaN standard) * 40%” value (replicate 3) was 82.71%, the “Western blot data following CaN interaction with biotinylated peptides, (signal for each/signal for CaN standard) * 40%” value (replicate 4) was 28.44% and the “Western blot data following CaN interaction with biotinylated peptides, (signal for each/signal for CaN standard) * 40%” value (replicate 5) was 26.76%. For the same substance, the “Western blot data following CaN interaction with biotinylated peptides, (signal for each/signal for CaN standard) * 40%” value (replicate 6) was 26.97%.

“MAGPHTMIVITGPHEE [V640M, biotinylated APP peptide incorporating the FAD mutation V640M]” was tested, and the “Western blot data following CaN interaction with biotinylated peptides, (signal for each/signal for CaN standard) * 40%” value (mean of n = 6) was 42.81%, the “Western blot data following CaN interaction with biotinylated peptides, (signal for each/signal for CaN standard) * 40%” value (replicate 1) was 69.77% and the “Western blot data following CaN interaction with biotinylated peptides, (signal for each/signal for CaN standard) * 40%” value (replicate 2) was 35.90%. The “Western blot data following CaN interaction with biotinylated peptides, (signal for each/signal for CaN standard) * 40%” value (replicate 3) was 61.53%, the “Western blot data following CaN interaction with biotinylated peptides, (signal for each/signal for CaN standard) * 40%” value (replicate 4) was 25.01% and the “Western blot data following CaN interaction with biotinylated peptides, (signal for each/signal for CaN standard) * 40%” value (replicate 5) was 31.86%. For the same substance, the “Western blot data following CaN interaction with biotinylated peptides, (signal for each/signal for CaN standard) * 40%” value (replicate 6) was 32.78%.

With “MAGPHIVIVITGPHEE [T639I, biotinylated APP peptide incorporating the FAD mutation T639I]” the “Western blot data following CaN interaction with biotinylated peptides, (signal for each/signal for CaN standard) * 40%” value (mean of n = 6) was 54.45%, the “Western blot data following CaN interaction with biotinylated peptides, (signal for each/signal for CaN standard) * 40%” value (replicate 1) was 94.68% and the “Western blot data following CaN interaction with biotinylated peptides, (signal for each/signal for CaN standard) * 40%” value (replicate 2) was 40.64%. For the same substance, the “Western blot data following CaN interaction with biotinylated peptides, (signal for each/signal for CaN standard) * 40%” value (replicate 3) was 44.78%, the “Western blot data following CaN interaction with biotinylated peptides, (signal for each/signal for CaN standard) * 40%” value (replicate 4) was 37.21% and the “Western blot data following CaN interaction with biotinylated peptides, (signal for each/signal for CaN standard) * 40%” value (replicate 5) was 55.66%. The “Western blot data following CaN interaction with biotinylated peptides, (signal for each/signal for CaN standard) * 40%” value (replicate 6) was 53.70%.

“MAGPHTVIVIPGPHEE [T644P, biotinylated APP peptide incorporating the FAD mutation T644P]” was tested, and the “CaN binding relative to the APP (WT) peptide (in words)” value was “reliably reduced CaN binding”, the “Western blot data following CaN interaction with biotinylated peptides, (signal for each/signal for CaN standard) * 40%” value (mean of n = 6) was 4.71% and the “Western blot data following CaN interaction with biotinylated peptides, (signal for each/signal for CaN standard) * 40%” value (replicate 1) was 0.13%. For the same substance, the “Western blot data following CaN interaction with biotinylated peptides, (signal for each/signal for CaN standard) * 40%” value (replicate 2) was 8.45%, the “Western blot data following CaN interaction with biotinylated peptides, (signal for each/signal for CaN standard) * 40%” value (replicate 3) was 2.14% and the “Western blot data following CaN interaction with biotinylated peptides, (signal for each/signal for CaN standard) * 40%” value (replicate 4) was 4.28%. For the same substance, the “Western blot data following CaN interaction with biotinylated peptides, (signal for each/signal for CaN standard) * 40%” value (replicate 5) was 3.74% and the “Western blot data following CaN interaction with biotinylated peptides, (signal for each/signal for CaN standard) * 40%” value (replicate 6) was 9.51%.

Reference: publication PMC11910330, “Familial Alzheimer’s disease mutations in amyloid precursor protein impair calcineurin signaling to NMDA receptors” (The Journal of Biological Chemistry, 2024)
